# In patent publication US20050215567A1, “1-[2H-1-benzopyran-2-one-8-yl]-piperazine derivatives for the treatment of pain” (SOLVAY PHARMACEUTICALS B.V., priority 2004, published 2005):
# “Also recorded” adds a separate entry of the source.
# Tests used:
# [1] = tested on: hot plate latency; experiment: Hot plate test (acute pain model); assay type: in vivo, mice; conditions: for Latency of animal to remove itself from the hotplate seconds ± STDerr: 30 minutes after administration; for analgesic effect in the hot plate test (in words): i.p., morphine 7.5 mg/kg, compound 1 0.1 mg/kg, sumatriptan 10 mg/kg
# Description: Hot plate test in mouse or rat according to Eddy and Leimbach (J. Pharmacol. Exp. Ther. 1953, 107: 385-393): Mice or rats are placed onto a hot metal plate maintained at 54° C. for mice or 52° C. for rats surrounded by a Plexiglas cylinder (Height: 13 cm; Diameter: 19 cm). The latency to the first foot-lick is measured (maximum: 30 seconds).
# Compound 1 and other compounds were tested on the hotplate 30 minutes after intraperitoneal administration. A description of the method is given above.
# [2] = tested on: acetic acid induced writhing; experiment: Acetic acid writhing test (acute pain model); assay type: in vivo, mice; conditions: Mus musculus, po
# Description: Phenylbenzoquinone and acetic writhing tests in mice follow the methods described by Hendershot et al (J. Pharmacol. Exp. Ther. 1959, 125: 237-240): Mice are injected with phenylbenzoquinone (PBQ) (1.25 mg/kg ip.) or acetic acid (0.5% ip.). This treatment induces a recognizable writhing response in control animals. The number of writhes is counted for 10 minutes beginning 5 minutes after injection of PBQ or acetic acid.
# [3] = Sedative effects after oral dosing; assay type: in vivo; conditions: dosages of up to 100 mg/kg p.o.
Compound,Latency of animal to remove itself from the hotplate seconds ± STDerr ([1]; 0.1 mg/kg i.p.) [s],"ED50 ([1]; Mus musculus, po, read-out: ED50 hot plate test) [mg/kg]",ED50 [2] [mg/kg],sedative effects [3],Latency of animal to remove itself from the hotplate seconds ± STDerr ([1]; 10 mg/kg i.p.) [s],analgesic effect in the hot plate test (in words) [1],analgesic effect in the hot plate test (in words) ([1]; listed as Sumatriptan),"antagonism of the analgesic effect of compound 1 in the hot plate test ([1]; sumatriptan 10 mg/kg i.p. with compound 1 0.1 mg/kg i.p., P-value=0.0001, Wilcoxon test)",Latency of animal to remove itself from the hotplate seconds ± STDerr ([1]; 7.5 mg/kg i.p.) [s]
"Nc1cc2cccc(N3CCNCC3)c2oc1=O [Compound 1, 3-amino-8-(1-piperazinyl)-2H-1-benzopyran-2-one]",8.4 ± 0.5,3.2,1.82,devoid of sedative effects,,,,,
CNS(=O)(=O)Cc1ccc2[nH]cc(CCN(C)C)c2c1 [sumatriptan],,,,,3.9 ± 0.3,inactive,completely inactive,nearly completely antagonizes; also recorded: nearly completely blocked,
CN1CC[C@]23c4c5ccc(O)c4O[C@H]2[C@@H](O)C=C[C@H]3[C@H]1C5 [morphine],,,,,,nearly doubles the latency,,,7.8 ± 0.3
